# According to PubChem BioAssay (NCI):
#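 Results reflect a 48-hour exposure of cells in 96-well plates to compound at five concentrations. The concentration for full growth arrest is given as TGI.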
# How the values were obtained:
# Test in all cases: growth of human tumour cells (NCI), 48 h
# HCT-15 colon = tested on: HCT-15 colon
# SK-MEL-5 melanoma = tested on: SK-MEL-5 melanoma
# DU-145 prostate = tested on: DU-145 prostate
# NCI-H460 lung = tested on: NCI-H460 lung
# OVCAR-5 ovarian = tested on: OVCAR-5 ovarian
# MCF7 breast = tested on: MCF7 breast
# NCI-H522 lung = tested on: NCI-H522 lung
# KM12 colon = tested on: KM12 colon
# NCI-H226 lung = tested on: NCI-H226 lung
# MDA-N = tested on: MDA-N
Compound,TGI (HCT-15 colon),TGI (SK-MEL-5 melanoma),TGI (DU-145 prostate),TGI (NCI-H460 lung),TGI (OVCAR-5 ovarian),TGI (MCF7 breast),TGI (NCI-H522 lung),TGI (KM12 colon),TGI (NCI-H226 lung),TGI (MDA-N)
O=c1oc2ccccc2c(O)c1Cc1cccc(Cc2c(O)c3ccccc3oc2=O)c1,> 100 µM,> 100 µM,> 100 µM,> 100 µM,> 100 µM,> 100 µM,> 100 µM,> 100 µM,> 100 µM,> 100 µM
COC(=O)C1[C@H](C(=O)OC)C1(Br)CBr (stereo not given in full),> 100 µM,> 100 µM,> 100 µM,> 100 µM,> 100 µM,> 100 µM,> 100 µM,> 100 µM,> 100 µM,> 100 µM
Cc1ccc(S(=O)(=O)N2CCN(CCO)CCN(S(=O)(=O)c3ccc(C)cc3)CCN(CCO)CC2)cc1,37.2 µM,27.3 µM,34.8 µM,28.7 µM,> 100 µM,28.2 µM,33.2 µM,38.6 µM,> 100 µM,93.6 µM
CCOC(=O)C1=C(C)N(c2ccc(C)cc2)C2(O)C=CC(=O)C3=C(O)c4ccccc4C(=O)C312 (stereo not given),> 100 µM,42.1 µM,55.7 µM,> 100 µM,> 100 µM,63 µM,34.7 µM,> 100 µM,> 100 µM,69.5 µM
